Test results from ChEMBL document CHEMBL3091286 (Bioorg Med Chem, 2013).

Assay: Displacement of [3H]-quipazine from 5-HT3 receptor in mouse/rat NG108-15 cells
Assay type: cell-based

O=C1c2cccc3c2[C@H](CCC3)CN1[C@@H]1CN2CCC1CC2 [PALONOSETRON]
pKi: 10.5
